Measured values published in US6506580B1, “Splice variants for human 5-HT4 serotonin receptor and their applications, in particular for screening” (Institut National de la Sante et de la Recherche Medicale …, priority 1997, dated 2003).

Key:
receptor 5-HT4(a) = biological target: T1, receptor 5-HT4(a) (Homo sapiens, UniProt Q13639); experiment: [3H]GR113808 radioligand binding, membranes of transiently transfected COS-7 cells; settings: read-out: Ki, competition for [3H]GR113808 binding
T1 construct: The entire coding region of the cDNAs of 5-HT4(a), 5-HT4(b), 5-HT4(c) and 5-T4(d) was subcloned; expressed in transfected cells; host or cells: COS-7 cells, transient, pRC/CMV vector
Procedure: (§1) The entire coding region of the cDNAs of 5-HT4(a), 5-HT4(b), 5-HT4(c) and 5-T4(d) was subcloned into a mammalian expression vector pRC/CMV (Invitrogen, Carlsbad, Calif.). The transfections were carried out using polyethyleneimine (PEI) as described in Boussif et al. (1995). The cells were transfected using a mixture of DNA and of PEI in a ratio of 20 μmol of PEI/mg of DNA in 0.9% NaCl. For the radioligand binding assays, the COS-7 cells were seeded into culture flasks of 1.5×10^4 mm^2 one day before the transfection, at a density of 1×10^7 cells/flask, incubated for six hours with plasmid DNA (150 μg/flask) and collected 48 hours after transfection. For the measurement of cAMP formation, the COS-7 cells were seeded onto twelve-well plates one day before transfection, at a density of 5×10^5 cells/well, incubated for six hours with plasmid DNA (4 to 8 μg/well according to the experiments) and assayed 24 hours after the transfection. The cells transfected with the receptor 5-HT4 cDNA constructs were compared with the “blank”-transfected cells, which were exposed to the unmodified pRC/CMV plasmid.
(§2) Each flask of cells intended for the radioligand binding assays was washed twice with a phosphate buffer (PBS). The cells were then scraped, collected and centrifuged at 300 g for five minutes. The pellet was resuspended in 2.5 ml of ice-cold HEPES buffer (50 mM, pH 7.4) and homogenized with an Ultraturax tissue grinder. The lysate was then centrifuged at 40,000 g for 20 minutes at 4° C. The resulting pellet was resuspended in 15 volumes of HEPES buffer (50 mM, pH 7.4). The membrane preparations were maintained in ice and used within two hours for radioligand binding assays. The protein concentrations were determined by the method of Lowry et al., 1951, using bovine serum albumin as standard.
(§3) The saturation studies were performed using [^3H] GR113808 at 9 different concentrations ranging from 0.01 to 3.5 nM. The tubes were incubated at 25° C. for 30 minutes. The reaction-was stopped by rapid filtration, under vacuum, through Whatman GF/B filter paper using the Brandel 48R cell harvester. The filters were presoaked in a solution of PEI (0.1%) to reduce the binding to the filters. The filters were then washed with an ice-cold buffer (50 mM Tris-HCl, pH 7.4) and placed in 4 ml of “ready safe” scintillation cocktail (Beckman, Fullerton, Calif.) overnight. The radioactivity was measured using a Beckman LS 6500 C liquid scintillation counter. The binding data were analysed by computer-assisted nonlinear regression analysis (Graph Pad Prism Program, Graph Pad Software, Inc., San Diego, Calif.).
(§4) The experiments correspond to the competition of various compounds for [^3H]GR113808 binding to membranes of transiently transfected COS-7 cells. […] The estimations of affinity are given as Ki values in nM, and are determined from IC50 values obtained by computer-assisted nonlinear curve analysis (GraphPad, Prism Software). The Ki values are representative of at least two determinations.

receptor 5-HT4(b) = biological target: T2, receptor 5-HT4(b) (Homo sapiens, UniProt Q13639); experiment: as above; settings: read-out: Ki, competition for [3H]GR113808 binding
T2 construct: The entire coding region of the cDNAs of 5-HT4(a), 5-HT4(b), 5-HT4(c) and 5-T4(d) was subcloned; expressed in transfected cells; host or cells: COS-7 cells, transient, pRC/CMV vector; cDNA amplified from human brain and ileum RNA
Procedure: as §1, §2, §3, §4

[1] = tested on: “blank”-transfected COS-7 cells; experiment: cAMP formation in control COS-7 cells; type: cell-based; settings: 1 μM
Procedure: as §1
To measure intracellular cAMP accumulation, the transiently transfected COS-7 cells were incubated, 24 hours after transfection, in Dulbecco's modified Eagle medium (DMEM) containing 5 mM theophylline, 10 mM HEPES and 10 μM pargyline for 15 minutes at 37° C., in the presence of 5% CO2. […] The reaction was stopped by aspiration of the medium and addition of 500 μl of ice-cold ethanol. After one hour at room temperature, the cells were scraped, and everything was collected and freeze-dried. The pellet was resuspended in 350 μl of PBS and centrifuged for 5 min at 300 g. The cAMP was quantified in the supernatant using a radioimmunological assay (E.R.I.A. assay kit from Pasteur Diagnostics 79830). Student's t tests were carried out using the program Quick TEst.

receptor 5-HT4(c) = receptor 5-HT4(c) (Homo sapiens, UniProt Q13639); experiment: [3H]GR113808 radioligand binding, membranes of transiently transfected COS-7 cells; design: The entire coding region of the cDNAs of 5-HT4(a), 5-HT4(b), 5-HT4(c) and 5-T4(d) was subcloned; expressed in transfected cells; host or cells: COS-7 cells, transient, pRC/CMV vector; cDNA amplified from human brain and ileum RNA; settings: read-out: Ki, competition for [3H]GR113808 binding
Procedure: as §1, §2, §3, §4

receptor 5-HT4(d) = receptor 5-HT4(d) (Homo sapiens, UniProt Q13639); experiment: as above; design: The entire coding region of the cDNAs of 5-HT4(a), 5-HT4(b), 5-HT4(c) and 5-T4(d) was subcloned; expressed in transfected cells; host or cells: COS-7 cells, transient, pRC/CMV vector; cDNA amplified from human brain and ileum RNA; settings: read-out: Ki, competition for [3H]GR113808 binding
Procedure: as §1, §2, §3, §4

Chain of receptor 5-HT4(c) (Q13639 1-380 isoform Q13639-4): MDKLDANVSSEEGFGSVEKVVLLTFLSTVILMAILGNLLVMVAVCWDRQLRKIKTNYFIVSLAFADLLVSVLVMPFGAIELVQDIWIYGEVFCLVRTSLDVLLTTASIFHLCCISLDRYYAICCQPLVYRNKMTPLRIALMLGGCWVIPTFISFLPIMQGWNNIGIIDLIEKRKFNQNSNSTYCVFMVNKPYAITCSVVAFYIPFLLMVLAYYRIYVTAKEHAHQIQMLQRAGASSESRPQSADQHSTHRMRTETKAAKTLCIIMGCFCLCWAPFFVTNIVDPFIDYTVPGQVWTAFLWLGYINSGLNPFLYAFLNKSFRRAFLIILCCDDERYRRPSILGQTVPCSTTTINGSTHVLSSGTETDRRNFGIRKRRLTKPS
Chain of receptor 5-HT4(d) (Q13639 1-360 isoform Q13639-3): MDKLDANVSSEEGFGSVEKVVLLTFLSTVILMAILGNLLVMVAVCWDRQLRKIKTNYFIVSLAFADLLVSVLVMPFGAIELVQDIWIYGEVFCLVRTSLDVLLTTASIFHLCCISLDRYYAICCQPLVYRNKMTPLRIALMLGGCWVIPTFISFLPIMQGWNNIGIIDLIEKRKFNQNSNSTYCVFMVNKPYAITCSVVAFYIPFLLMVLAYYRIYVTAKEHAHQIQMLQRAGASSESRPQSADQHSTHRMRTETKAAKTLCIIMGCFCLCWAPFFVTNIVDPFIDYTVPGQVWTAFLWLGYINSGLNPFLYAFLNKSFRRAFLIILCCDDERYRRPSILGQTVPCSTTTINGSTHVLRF
T1 sequence (Q13639 1-387 isoform Q13639-2): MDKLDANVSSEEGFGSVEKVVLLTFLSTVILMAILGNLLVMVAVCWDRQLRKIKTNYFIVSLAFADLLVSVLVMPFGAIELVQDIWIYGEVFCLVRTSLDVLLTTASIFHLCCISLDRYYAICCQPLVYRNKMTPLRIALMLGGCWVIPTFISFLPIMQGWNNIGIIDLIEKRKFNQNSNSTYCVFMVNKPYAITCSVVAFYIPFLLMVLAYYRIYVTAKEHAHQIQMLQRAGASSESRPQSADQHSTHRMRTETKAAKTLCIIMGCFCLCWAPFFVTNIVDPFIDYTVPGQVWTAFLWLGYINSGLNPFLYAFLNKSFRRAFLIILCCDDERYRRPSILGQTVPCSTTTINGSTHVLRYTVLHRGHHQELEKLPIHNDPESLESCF
T2 sequence (Q13639 whole entry): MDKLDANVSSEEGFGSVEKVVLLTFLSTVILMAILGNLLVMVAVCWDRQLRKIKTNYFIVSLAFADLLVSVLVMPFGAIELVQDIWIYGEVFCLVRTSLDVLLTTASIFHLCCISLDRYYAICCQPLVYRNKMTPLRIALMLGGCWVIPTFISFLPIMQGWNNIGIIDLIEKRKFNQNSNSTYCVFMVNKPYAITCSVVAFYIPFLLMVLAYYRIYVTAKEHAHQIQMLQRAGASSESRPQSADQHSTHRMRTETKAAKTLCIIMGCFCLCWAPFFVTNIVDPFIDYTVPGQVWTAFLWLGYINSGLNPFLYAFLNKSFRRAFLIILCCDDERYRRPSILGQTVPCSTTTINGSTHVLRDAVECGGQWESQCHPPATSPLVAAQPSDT

- Ki (receptor 5-HT4(a)): 0.56 ± 0.11 nM
- Ki (receptor 5-HT4(b)): 1.62 ± 0.82 nM
- Ki (receptor 5-HT4(c)): 0.61 ± 0.08 nM
- Ki (receptor 5-HT4(d)): 0.41 ± 0.1 nM
Compound: COc1cc(N)c(Cl)cc1C(=O)OCCN1C[C@H](C)C[C@H](C)C1 [ML10375, 2-(cis-3,5-dimethyl-piperidino)ethyl 4-amino-5-chloro-2-methoxybenzoate]
- effect on basal adenylate cyclase activity / basal cAMP levels [1]: no significant effect
